In patent US20150246136A1, “NOVEL BINDER-DRUG CONJUGATES (ADCs) AND USE OF SAME” (priority 2011, published 2015):
Counter-ions that a name gives are not always drawn. Square brackets hold non-standard residues; d marks the D form. Peptide text beside a SMILES is read from it. * marks the point of attachment. X2 = CC(C)[C@@H](C(=O)*)N(C)CCCCCCN1C(=O)CC(SC[C@H](N)C(=O)O)C1=O; X1 = CC(C)[C@@H](C(=O)*)N(C)CCCCCC(=O)NCCCC[C@H](N)C(=O)O; Dolaproine = CO[C@@H]([C@@H]1CCCN1)[C@@H](C)C(=O)O; Dil = CC[C@H](C)[C@H](NC)[C@@H](CC(=O)O)OC; X5 = C[C@@H](N*)[C@@H](O)c1ccccc1; Oxazinan2yl(1,2) = C1CCN(*)OC1; NMeV = CN[C@H](C(=O)O)C(C)C

test system: Caco2 cells; experiment: Cell permeability, flux assay using Caco2 cells; format: in vitro ADME; conditions: 2 hours
Description: C-3.3 In Vitro Tests for Determining Cell Permeability
The cell permeability of a substance can be investigated by means of in vitro testing in a flux assay using Caco2 cells (M. D. Troutman and D. R. Thakker, Pharm. Res. 20(8):1210-1224 (2003)). To do so, the cells are cultured on 24-hole filter plates for 15-16 days. To determine the permeation, the respective test substance in a HEPES buffer was applied to the cells either apically (A) or basally (B) and incubated for 2 hours. After 0 h and 2 h, samples were taken from the cis and trans compartments. The samples were separated by HPLC (Agilent 1200, Biblingen, Germany) using reverse-phase columns. The HPLC system was linked to a triple quadrupole mass spectrometer API 4000 (Applied Biosystems Applera, Darmstadt, Germany) via a turbo ion spray interface. Permeability was evaluated on the basis of a Papp value which was calculated by means of the formula published by Schwab et al. (D. Schwab et al., J. Med. Chem. 46, 1716-1725 (2003)).
The permeability of B to A (Papp (B-A)) is of crucial importance for toxophores but are released intracellularly: the lower this permeability, the longer is the dwell time of the substance in the cell after intracellular release and thus also the time available for interaction with the biochemical target (here tubulin).

| SMILES | Papp (B-A) [×10⁻⁶ cm/s] |
| --- | --- |
| CC[C@H](C)[C@@H]([C@@H](CC(=O)N1CCC[C@H]1[C@H](OC)[C@@H](C)C(=O)N[C@@]1(C(=O)N2CCCCO2)C[C@@H]1c1ccccc1)OC)N(C)C(=O)[C@@H](NC(=O)[C@H](C(C)C)N(C)CCCC(=O)NNC(=O)CCCCCN1C(=O)CC(SC[C@H](N)C(=O)O)C1=O)C(C)C (stereo partly drawn) [Example 235, N-(4-{2-[6-(3-{[(2R)-2-amino-2-carboxyethyl]sulfanyl}-2,5-dioxopyrrolidin-1-yl)hexanoyl]hydrazino}-4-oxobutyl)-N-methyl-L-valyl-N-[(3R,4S,5S)-3-methoxy-1-{(2S)-2-[(1R,2R)-1-methoxy-2-methyl-3-{[(1S,2R)-1-(1,2-oxazinan-2-ylcarbonyl)-2-phenylcyclopropyl]amino}-3-oxopropyl]pyrrolidin-1-yl}-5-methyl-1-oxoheptan-4-yl]-N-methyl-L-valinamide] | 0.25 |
| CC[C@H](C)[C@@H]([C@@H](CC(=O)N1CCC[C@H]1[C@H](OC)[C@@H](C)C(=O)N[C@@H](Cc1c[nH]c2ccccc12)C(=O)O)OC)N(C)C(=O)[C@@H](NC(=O)[C@H](C(C)C)N(C)CCCCCC(=O)NCCCC[C@H](N)C(=O)O)C(C)C [Example 278, N-(6-{[(5S)-5-amino-5-carboxypentyl]amino}-6-oxohexyl)-N-methyl-L-valyl-N-[(3R,4S,5S)-1-{(2S)-2-[(1R,2R)-3-{[(1S)-1-carboxy-2-(1H-indol-3-yl)ethyl]amino}-1-methoxy-2-methyl-3-oxopropyl]pyrrolidin-1-yl}-3-methoxy-5-methyl-1-oxoheptan-4-yl]-N-methyl-L-valinamide] (X1-V[Dil][Dolaproine]W-OH) | 0.1 |
| CC[C@H](C)[C@@H]([C@@H](CC(=O)N1CCC[C@H]1[C@H](OC)[C@@H](C)C(=O)N[C@@H](Cc1c[nH]c2ccccc12)C(=O)O)OC)N(C)C(=O)[C@@H](NC(=O)[C@H](C(C)C)N(C)CCCC(=O)NNC(=O)CCCCCN1C(=O)CC(SC[C@H](N)C(=O)O)C1=O)C(C)C (stereo partly drawn) [Example 234, N-(4-{2-[6-(3-{[(2R)-2-amino-2-carboxyethyl]sulfanyl}-2,5-dioxopyrrolidin-1-yl)hexanoyl]hydrazino}-4-oxobutyl)-N-methyl-L-valyl-N-[(3R,4S,5S)-1-{(2S)-2-[(1R,2R)-3-{[(1S)-1-carboxy-2-(1H-indol-3-yl)ethyl]amino}-1-methoxy-2-methyl-3-oxopropyl]pyrrolidin-1-yl}-3-methoxy-5-methyl-1-oxoheptan-4-yl]-N-methyl-L-valinamide] | 0.16 |
| CC[C@H](C)[C@@H]([C@@H](CC(=O)N1CCC[C@H]1[C@H](OC)[C@@H](C)C(=O)N[C@@H](Cc1ccccc1)C(=O)O)OC)N(C)C(=O)[C@@H](NC(=O)[C@@H](NC)C(C)C)C(C)C [monomethyl auristatin F (MMAF), monomethyl auristatin F, reference compound] (H-[NMeV]V[Dil][Dolaproine]F-OH) | 7.3 |
| CC[C@H](C)[C@@H]([C@@H](CC(=O)N1CCC[C@H]1[C@H](OC)[C@@H](C)C(=O)N[C@@H](Cc1c[nH]c2ccccc12)C(N)=O)OC)N(C)C(=O)[C@@H](NC(=O)[C@H](C(C)C)N(C)CCCC(=O)NNC(=O)CCCCCN1C(=O)CC(SC[C@H](N)C(=O)O)C1=O)C(C)C (stereo partly drawn) [Example 233, N-(4-{2-[6-(3-{[(2R)-2-amino-2-carboxyethyl]sulfanyl}-2,5-dioxopyrrolidin-1-yl)hexanoyl]hydrazino}-4-oxobutyl)-N-methyl-L-valyl-N-[(3R,4S,5S)-1-{(2S)-2-[(1R,2R)-3-{[(2S)-1-amino-3-(1H-indol-3-yl)-1-oxopropan-2-yl]amino}-1-methoxy-2-methyl-3-oxopropyl]pyrrolidin-1-yl}-3-methoxy-5-methyl-1-oxoheptan-4-yl]-N-methyl-L-valinamide] | 0.2 |
| CC[C@H](C)[C@@H]([C@@H](CC(=O)N1CCC[C@H]1[C@H](OC)[C@@H](C)C(=O)N[C@@H](Cc1c[nH]c2ccccc12)C(=O)NCc1ccccc1)OC)N(C)C(=O)[C@@H](NC(=O)[C@H](C(C)C)N(C)CCCC(=O)NNC(=O)CCCCCN1C(=O)CC(SC[C@H](N)C(=O)O)C1=O)C(C)C (stereo partly drawn) [Example 239, N-(4-{2-[6-(3-{[(2R)-2-amino-2-carboxyethyl]sulfanyl}-2,5-dioxopyrrolidin-1-yl)hexanoyl]hydrazino}-4-oxobutyl)-N-methyl-L-valyl-N-[(3R,4S,5S)-1-{(2S)-2-[(1R,2R)-3-{[(2S)-1-(benzylamino)-3-(1H-indol-3-yl)-1-oxopropan-2-yl]amino}-1-methoxy-2-methyl-3-oxopropyl]pyrrolidin-1-yl}-3-methoxy-5-methyl-1-oxoheptan-4-yl]-N-methyl-L-valinamide] | 0.7 |
| CC[C@H](C)[C@@H]([C@@H](CC(=O)N1CCC[C@H]1[C@H](OC)[C@@H](C)C(=O)N[C@@H](Cc1c[nH]c2ccccc12)C(=O)O)OC)N(C)C(=O)[C@@H](NC(=O)[C@H](C(C)C)N(C)CCCCCCN1C(=O)CC(SC[C@H](N)C(=O)O)C1=O)C(C)C (stereo partly drawn) [Example 237, N-[6-(3-{[(2R)-2-amino-2-carboxyethyl]sulfanyl}-2,5-dioxopyrrolidin-1-yl)hexyl]-N-methyl-L-valyl-N-[(3R,4S,5S)-1-{(2S)-2-[(1R,2R)-3-{[(1S)-1-carboxy-2-(1H-indol-3-yl)ethyl]amino}-1-methoxy-2-methyl-3-oxopropyl]pyrrolidin-1-yl}-3-methoxy-5-methyl-1-oxoheptan-4-yl]-N-methyl-L-valinamide] (X2-V[Dil][Dolaproine]W-OH) | 0.1 |
| CC[C@H](C)[C@@H]([C@@H](CC(=O)N1CCC[C@H]1[C@H](OC)[C@@H](C)C(=O)N[C@H](C)[C@@H](O)c1ccccc1)OC)N(C)C(=O)[C@@H](NC(=O)[C@@H](NC)C(C)C)C(C)C [monomethyl auristatin E (MMAE), monomethyl auristatin E, reference compound] (H-[NMeV]V[Dil][Dolaproine]-X5) | 7.3 |
| CC[C@H](C)[C@@H]([C@@H](CC(=O)N1CCC[C@H]1[C@H](OC)[C@@H](C)C(=O)N[C@@H](Cc1c[nH]c2ccccc12)C(=O)N1CCCCO1)OC)N(C)C(=O)[C@@H](NC(=O)[C@H](C(C)C)N(C)CCCCCC(=O)NCCCC[C@H](N)C(=O)O)C(C)C [Example 277, N-(6-{[(5S)-5-amino-5-carboxypentyl]amino}-6-oxohexyl)-N-methyl-L-valyl-N-[(3R,4S,5S)-1-{(2S)-2-[(1R,2R)-3-{[(2S)-3-(1H-indol-3-yl)-1-(1,2-oxazinan-2-yl)-1-oxopropan-2-yl]amino}-1-methoxy-2-methyl-3-oxopropyl]pyrrolidin-1-yl}-3-methoxy-5-methyl-1-oxoheptan-4-yl]-N-methyl-L-valinamide trifluoroacetate] (X1-V[Dil][Dolaproine]W-{Oxazinan2yl(1,2)}) | 0.2 |
| CC[C@H](C)[C@@H]([C@@H](CC(=O)N1CCC[C@H]1[C@H](OC)[C@@H](C)C(=O)N[C@@H](Cc1c[nH]c2ccccc12)C(N)=O)OC)N(C)C(=O)[C@@H](NC(=O)[C@H](C(C)C)N(C)CCCCCCN1C(=O)CC(SC[C@H](N)C(=O)O)C1=O)C(C)C (stereo partly drawn) [Example 236, N-[6-(3-{[(2R)-2-amino-2-carboxyethyl]sulfanyl}-2,5-dioxopyrrolidin-1-yl)hexyl]-N-methyl-L-valyl-N-[(3R,4S,5S)-1-{(2S)-2-[(1R,2R)-3-{[(2S)-1-amino-3-(1H-indol-3-yl)-1-oxopropan-2-yl]amino}-1-methoxy-2-methyl-3-oxopropyl]pyrrolidin-1-yl}-3-methoxy-5-methyl-1-oxoheptan-4-yl]-N-methyl-L-valinamide] (X2-V[Dil][Dolaproine]W-NH2) | 0.5 |

test system: various carcinoma cell lines; experiment: not given; conditions: in comparison with MMAE; cited from earlier work

| SMILES | antiproliferative effect |
| --- | --- |
| CC[C@H](C)[C@@H]([C@@H](CC(=O)N1CCC[C@H]1[C@H](OC)[C@@H](C)C(=O)N[C@@H](Cc1ccccc1)C(=O)O)OC)N(C)C(=O)[C@@H](NC(=O)[C@@H](NC)C(C)C)C(C)C [MMAF, Monomethylauristatin F] (H-[NMeV]V[Dil][Dolaproine]F-OH) | only a moderate antiproliferative effect |

same assay, conditions: in comparison with MMAF, various carcinoma cell lines; cited from earlier work

| SMILES | in vitro cytotoxicity |
| --- | --- |
| CC[C@H](C)[C@@H]([C@@H](CC(=O)N1CCC[C@H]1[C@H](OC)[C@@H](C)C(=O)N[C@@H](Cc1ccccc1)C(=O)OC)OC)N(C)C(=O)[C@@H](NC(=O)[C@@H](NC)C(C)C)C(C)C [MMAF-OMe, Monomethylauristatin F-methylester] (H-[NMeV]V[Dil][Dolaproine]F-OMe) | greater by several orders of magnitude |
